From PMC4376459, “CXCR3 antagonist VUF10085 binds to an intrahelical site distinct from that of the broad spectrum antagonist TAK-779” (British Journal of Pharmacology, 2015) come the findings set out here.

For one assay, the target named is T1, WT CXCR3 (Homo sapiens, UniProt P49682).
T1 construct: expressed in transfected cells; host or cells: murine pre-B cell line L1.2, transient transfection by electroporation
T1 sequence (P49682 1-368): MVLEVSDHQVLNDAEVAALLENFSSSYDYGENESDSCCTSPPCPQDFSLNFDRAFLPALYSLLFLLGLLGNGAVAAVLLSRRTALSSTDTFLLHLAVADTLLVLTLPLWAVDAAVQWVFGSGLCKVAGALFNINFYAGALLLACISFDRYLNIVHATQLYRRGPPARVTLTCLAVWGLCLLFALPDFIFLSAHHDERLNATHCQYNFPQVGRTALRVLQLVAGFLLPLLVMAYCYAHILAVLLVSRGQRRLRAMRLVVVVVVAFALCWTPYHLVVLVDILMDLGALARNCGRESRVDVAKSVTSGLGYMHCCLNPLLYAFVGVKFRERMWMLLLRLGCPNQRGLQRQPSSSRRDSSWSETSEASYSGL
The experiment in a line: Whole-cell 125I-CXCL11 binding assay, L1.2 transfectants. As to conditions: WT CXCR3 transfectants (Figure 1); read-out: IC50 for displacement of 125I-CXCL11.

The next assay has as its target T2, CXCR3 Y60A (Homo sapiens, UniProt P49682, Y60A).
T2 construct: expressed in transfected cells; host or cells: murine pre-B cell line L1.2, transient transfection
T2 sequence (P49682 1-368 Y60A): T1 sequence (P49682 1-368) with Y60A
The assay is described as above.

The next assay addresses T3, CXCR3 I279A (Homo sapiens, UniProt P49682, I279A).
T3 construct: expressed in transfected cells; host or cells: murine pre-B cell line L1.2, transient transfection
T3 sequence (P49682 1-368 I279A): T1 sequence (P49682 1-368) with I279A
Described as above. As to conditions: I279A, 0.1 nM 125I-CXCL11; read-out: IC50 ligand binding (mean ± SEM).

For another assay, the target named is T4, CXCR3 F131A (Homo sapiens, UniProt P49682, F131A).
T4 construct: expressed in transfected cells; host or cells: murine pre-B cell line L1.2, transient transfection
T4 sequence (P49682 1-368 F131A): T1 sequence (P49682 1-368) with F131A
Described as above. Particulars: 0.1 nM 125I-CXCL11, read-out: IC50 ligand binding (mean ± SEM).

The target in another assay is T5, D112N-CXCR3 (Homo sapiens, UniProt P49682, D112N).
T5 construct: expressed in transfected cells; host or cells: murine pre-B cell line L1.2, transient transfection
T5 sequence (P49682 1-368 D112N): T1 sequence (P49682 1-368) with D112N
The experiment in a line: Chemotaxis assay, L1.2 transfectants migrating to CXCL11. It is filed as cell-based. As to conditions: 10 nM CXCL11, read-out: IC50 for inhibition of migration.

Substitutions are numbered along the chain they refer to.

`Cc1ccc(-c2ccc3c(c2)C=C(C(=O)Nc2ccc(C[N+](C)(C)C4CCOCC4)cc2)CCC3)cc1.[Cl-]` [TAK-779, N,N-dimethyl-N-[4-[[[2-(4-methylphenyl)-6,7-dihydro-5H-benzocyclohepten-8-yl]-carbonyl]amino]benzyl] tetrahydro-2H-pyran-4-aminium chloride]: the IC50 amounted to 15.6 µM on WT CXCR3; 14 ± 7.07 µM on CXCR3 Y60A (Y60A, 0.1 nM 125I-CXCL11, read-out: IC50 ligand binding (mean ± SEM)); 39.4 ± 15 µM at CXCR3 I279A; 23.3 ± 6.57 µM at CXCR3 F131A; 1.34 µM at D112N-CXCR3. Besides, the “reduction in IC50 value, ligand binding” value at CXCR3 Y60A (Y60A relative to WT) is “twofold”.
